Patent US12622941B2, “Anticoccidial composition comprising ginkgo leaves and use thereof” (CJ CHEILJEDANG CORPORATION, priority 2020, dated 2026)

Columns and labels:
[1] = tested on: Eimeria acervulina; experiment: Eimeria acervulina sporozoite death rate by component of ginkgo leaf powder; assay type: cell-based
Protocol: (§1) A certain amount of oocysts of each protozoan was put in a tube containing glass beads and pulverized, and then to remove the crushed oocyst cell wall and other debris, internal sporocysts were purified using the percoll density gradient, and washed with PBS solution. A reagent comprising sodium taurocholic acid (Sigma aldrich, USA) and trypsin (Gibco, USA), respectively, was treated to sporocysts of Eimeria tenella, Eimeria acervulina and Eimeria maxima for excystation and they were incubated, and then they were washed with PBS solution once and protozoa were obtained.

[2] = tested on: Eimeria tenella; experiment: Intracellular propagation inhibition of Eimeria tenella protozoa in MDBK cells (ITS-1 PCR); assay type: cell-based; conditions: read-out: Intracellular protozoal propagation inhibitory effect (%)
Protocol: 100,000 MDBK cells (purchased from ATCC) were aliquoted in a 24-well plate, and then incubated at a temperature of 37° C. for 12 hours. The protozoan of Eimeria tenella was obtained similar to the method of Example 2 above. […] A negative control group is a MDBK cell infected by protozoa, and a positive control group means a group in which salinomycin and diclazuril solution was incubated with the Eimeria tenella protozoan. After removing the cells and protozoa inside the cells through pipetting, DNA was extracted from the cells, and PCR was performed using E. tenella ITS-1 (Internal transcribed spacer-1) gene-specific primers. The sequences of the used primers were described in Table 10 above.
Ct values before/after washing for each material were compared to calculate the cell invasion inhibition rate (%) of the protozoa and the intracellular protozoan propagation inhibition rate (%) through treatment of the material, and the result was shown in FIG. 2 and Table 11 below.

[3] = tested on: Eimeria maxima; experiment: Direct killing of protozoa (sporozoites), Eimeria maxima; assay type: cell-based; conditions: tested 1 to 500 ppm, vs PBS control
Protocol: (§2) In the present example, protozoan (sporozoite) direct killing ability evaluation was conducted against 3 representative Eimeria kinds known to be infected in most farms (E. tenella, E. acervulina, E. maxima).
as §1

[4] = tested on: Eimeria tenella; experiment: Cell invasion inhibition of Eimeria tenella protozoa in MDBK cells (ITS-1 PCR); assay type: cell-based; conditions: read-out: Cell invasion inhibitory effect of protozoan (%)
Protocol: 100,000 MDBK cells (purchased from ATCC) were aliquoted in a 24-well plate, and then incubated at a temperature of 37° C. for 12 hours. […] After removing the cells and protozoa inside the cells through pipetting, DNA was extracted from the cells, and PCR was performed using E. tenella ITS-1 (Internal transcribed spacer-1) gene-specific primers. The sequences of the used primers were described in Table 10 below. Ct values before/after washing for each material were compared and corrected with the ΔCt value of the negative control group to calculate the cell invasion inhibition rate (%) of the protozoa through treatment of each material, and the result was shown in FIG. 2 and Table 11 below.

[5] = tested on: Eimeria tenella; experiment: In vivo anticoccidial efficacy in broilers after Eimeria tenella challenge inoculation; conditions: in feed: salinomycin 60 ppm, diclazuril 1 ppm, ginkgo leaf powder 125 ppm; for Anticoccidial index (ACI): Equation 2, out of 200 points; for Lesion index: appendix lesion score x 10; for ADG after challenge inoculation / Survival rate (%): broilers; for ADG after challenge inoculation: before to 7th day after challenge; for Survival rate (%): up to 8th day after challenge; for Oocyst index: from oocyst excretion % of infected negative control; for Daily weight gain compared to negative control group (RWG, %): relative to non-infected negative control; for Appendix lesion score: scale 0-4, 8th day after challenge
Protocol: An in vivo anticoccidial efficacy evaluation test was performed in an animal experiment facility in Gyeongsangnam-do, South Korea. One-day-old female Ross broilers were individually weighed and randomly divided into groups to use in an experiment. Matters and conditions for experimental design were described in Table 2.
For the feed, Korea Feed A1-choi product was used, and each material diclazuril (Yuhan Corporation YUHAN DICLA product), salinomycin (Cheil Bio Cheilsalino-60 product), gallic acid (Sigma product), the ginkgo leaf product prepared in Example 1-2) was added to the feed, respectively, at a concentration described in Table 3 below to be self-mixed. Antibiotics and supplements were not used in general feed and mixed feed, and no anticoccidial agent other than each material was added. Broilers were fed ad libitum throughout the experiment period. After putting 30 1-day-age broilers in cages randomly placed for each of the control group or test group and breeding, general feed (A1-choi product) was fed for 7 days, and then the mixed feed prepared above was ingested by dividing by control group or test group.
The feed formulation administered to the control group (negative control group or positive control group) and test group and whether coccidiosis was induced by Eimeria tenella were described in Table 3 below.
14-day-old broilers were orally inoculated (challenge inoculation) with 10,000 oocysts (over 90% sporulated Eimeria tenella oocysts) per individual to induce coccidiosis.
The anticoccidial efficacy by test group designed in Example 1-3 above was shown as an anticoccidial index (ACI), and the anticoccidial index was calculated by Equation 2 below. The ACI score is out of 200 points, and the higher the ACI score, the more excellent the anticoccidial ability, and when it is 120 points or more to less than 140 points, it is determined that it is effective as an anticoccidial material, and when it is 140 points or more to less than 160 points, it is determined that it is excellent as an anticoccidial material, and when it is 160 points or more, it is determined that the anticoccidial effect is very excellent (Luis Miguel De Pablos et al., Anticoccidial activity of maslinic acid against infection with Eimeria tenella in chickens, Parasitol Res, 2010). Anticoccidial index(ACI)=(survival rate after challenge inoculation (%))+(daily weight gain compared to negative control group(RWG,%))−(lesion score×10)−(fecal oocyst excretion amount index)(Equation 2) • 1) Survival rate: the number of dead individuals was recorded daily, and post mortem autopsy was performed to determine a cause of mortality, and the number of individuals who died due to causes other than coccidiosis was excluded. The survival rate (%) up to the 8th day after challenge inoculation was used for anticoccidial index calculation.
• 3) Lesion scoring: On the 8th day after challenge inoculation, an autopsy was conducted for 4 broilers per cage, and the intestines were incised and opened. Scoring was performed for each coccidial lesion in the appendix region of the broilers. The lesion scoring method was performed by referring to Johnson J K & Reid W M (1970) document (Joyce Johnson, W. Malcolm Reid, Anticoccidial drugs: Lesion scoring techniques in battery and floor-pen experiments with chickens, Experimental parasitology, 1970). The lesion score is on a scale of 0-4, and 0 point corresponds to normal appendix, and 1 point is a mild infection symptom, and 2 points is a moderate infection symptom, and 3 points is a severe infection symptom and 4 points is a case of showing a very severe infection symptom or causing death. A lesion index was calculated by multiplying the measured appendix lesion score by 10, and this was used for anticoccidial index calculation.
• 4) Fecal oocyst excretion amount: the entire feces on the 6˜8th day of challenge inoculation were collected by cage, mixed evenly, and then randomly sampled 3 times in total by 1 g each. […]

[6] = tested on: Eimeria acervulina; experiment: Direct killing of protozoa (sporozoites), Eimeria acervulina; assay type: cell-based; conditions: tested 1 to 500 ppm, vs PBS control
Protocol: as §2, §1

[7] = tested on: Eimeria tenella; experiment: Direct killing of protozoa (sporozoites), Eimeria tenella; assay type: cell-based; conditions: tested 1 to 500 ppm, vs PBS control
Protocol: as §2, §1

Compound: CC(C)(C)C1(O)CC2OC(=O)CC23C(=O)OC2OC(=O)C(O)C231 (stereo not drawn) [Bilobalide]
- Eimeria acervulina sporozoite death rate (%) ([1]; 8 ppm): 0%
- Eimeria acervulina sporozoite death rate (%) ([1]; 16 ppm): 0%
- Eimeria acervulina sporozoite death rate (%) ([1]; 31 ppm): 0%
- Eimeria acervulina sporozoite death rate (%) ([1]; 63 ppm): 8%
- Eimeria acervulina sporozoite death rate (%) ([1]; 125 ppm): 14%
- Eimeria acervulina sporozoite death rate (%) ([1]; 250 ppm): 41%
- Eimeria acervulina sporozoite death rate (%) ([1]; 500 ppm): 51%

Compound: N#CC(c1ccc(Cl)cc1)c1c(Cl)cc(-n2ncc(=O)[nH]c2=O)cc1Cl (stereo not drawn) [Diclazuril, diclazuril]
- inhibition at 0.5 ppm ([2]; 0.5 ppm, MDBK cells): 45.9%
- inhibition at 1 ppm ([2]; 1 ppm, MDBK cells): 52.9%
- Minimum concentration for killing 50% protozoa (sporozoites) (ppm) [3]: >500 ppm
- inhibition at 0.5 ppm ([4]; 0.5 ppm, MDBK cells, 24 hours): 0%
- inhibition at 1 ppm ([4]; 1 ppm, MDBK cells, 24 hours): 6.3%
- Anticoccidial index (ACI) [5]: 148
- Lesion index [5]: 29
- ADG after challenge inoculation [5]: 62 g/day
- Survival rate (%) [5]: 97%
- Oocyst index [5]: 10
- Daily weight gain compared to negative control group (RWG, %) [5]: 93%
- Appendix lesion score [5]: 2.88
- Minimum concentration for killing 50% protozoa (sporozoites) (ppm) [6]: >500 ppm
- Minimum concentration for killing 50% protozoa (sporozoites) (ppm) [7]: 500 ppm

Compound: O=C(O)c1cc(O)c(O)c(O)c1 [Gallic acid, gallic acid]
- inhibition at 5 ppm ([2]; 5 ppm, MDBK cells): 0%
- inhibition at 10 ppm ([2]; 10 ppm, MDBK cells): 0%
- Minimum concentration for killing 50% protozoa (sporozoites) (ppm) [3]: >500 ppm
- inhibition at 5 ppm ([4]; 5 ppm, MDBK cells, 24 hours): 76%
- inhibition at 10 ppm ([4]; 10 ppm, MDBK cells, 24 hours): 90.1%
- Minimum concentration for killing 50% protozoa (sporozoites) (ppm) [6]: >500 ppm
- Minimum concentration for killing 50% protozoa (sporozoites) (ppm) [7]: >500 ppm
- Minimum concentration for killing 50% protozoa (sporozoites) (ppm) ([7]; listed as gallic acid): > 500 ppm

Compound: O=c1c(O)c(-c2ccc(O)cc2)oc2cc(O)cc(O)c12 [Kaempferol]
- Eimeria acervulina sporozoite death rate (%) ([1]; 8 ppm): 0%
- Eimeria acervulina sporozoite death rate (%) ([1]; 16 ppm): 0%
- Eimeria acervulina sporozoite death rate (%) ([1]; 31 ppm): 0%
- Eimeria acervulina sporozoite death rate (%) ([1]; 63 ppm): 0%
- Eimeria acervulina sporozoite death rate (%) ([1]; 125 ppm): 1%
- Eimeria acervulina sporozoite death rate (%) ([1]; 250 ppm): 27%
- Eimeria acervulina sporozoite death rate (%) ([1]; 500 ppm): 54%

Compound: O=c1c(O)c(-c2ccc(O)c(O)c2)oc2cc(O)cc(O)c12 [Quercetin]
- Eimeria acervulina sporozoite death rate (%) ([1]; 8 ppm): 0%
- Eimeria acervulina sporozoite death rate (%) ([1]; 16 ppm): 0%
- Eimeria acervulina sporozoite death rate (%) ([1]; 31 ppm): 0%
- Eimeria acervulina sporozoite death rate (%) ([1]; 63 ppm): 8%
- Eimeria acervulina sporozoite death rate (%) ([1]; 125 ppm): 34%
- Eimeria acervulina sporozoite death rate (%) ([1]; 250 ppm): 47%
- Eimeria acervulina sporozoite death rate (%) ([1]; 500 ppm): 68%

Compound: CC[C@@H](C(=O)[C@@H](C)[C@@H](O)[C@H](C)[C@@H]1O[C@@H]([C@@H](CC)C(=O)O)CC[C@@H]1C)[C@H]1O[C@]2(C=C[C@@H](O)[C@]3(CC[C@@](C)([C@H]4CC[C@](O)(CC)[C@H](C)O4)O3)O2)[C@H](C)C[C@@H]1C [Salinomycin, salinomycin]
- inhibition at 5 ppm ([2]; MDBK): 32.2%
- inhibition at 10 ppm ([2]; MDBK): 34.8%
- Minimum concentration for killing 50% protozoa (sporozoites) (ppm) [3]: 250 ppm
- inhibition at 5 ppm ([4]; MDBK, 24 h): 50.1%
- inhibition at 10 ppm ([4]; MDBK, 24 h): 56.4%
- Anticoccidial index (ACI) [5]: 141
- Lesion index [5]: 27
- ADG after challenge inoculation [5]: 62 g/day
- Survival rate (%) [5]: 93%
- Oocyst index [5]: 20
- Daily weight gain compared to negative control group (RWG, %) [5]: 94%
- Appendix lesion score [5]: 2.7
- Minimum concentration for killing 50% protozoa (sporozoites) (ppm) [6]: 100 ppm
- Minimum concentration for killing 50% protozoa (sporozoites) (ppm) [7]: 125 ppm
